Results as given in patent US20250368614A1, “COMPOUNDS AND METHODS FOR YAP/TEAD MODULATION AND INDICATIONS THEREFOR” (OPNA BIO SA, priority 2023, published 2025).

test system: TEAD-dependent transcription (12XGTIIC TEAD response element luciferase reporter) in MSTO-211H cells; assay: TEAD-dependent transcription cell-based luciferase reporter assay in MSTO-211H+12XGTIIC cells; details: Homo sapiens; MSTO-211H+12XGTIIC reporter cells, 24 hours compound incubation, luminescence normalized to cell viability signal, geometric mean; read-out: MSTO-211H GMean IC50 (uM) Cell Assay Reporter Cell Variant: TEAD
Description: Determine Inhibitor Activity Against TEAD-Dependent Transcription in a Cell-Based Reporter Assay
The human mesothelioma cell line MSTO-211H was stably transfected with a pGL4.21 plasmid containing a synthetic promoter with 12 copies of the GTIIC TEAD response element that drives the expression of a luciferase reporter gene^1 using Lipofectamine transfection reagent (Thermo Fisher). Transfected cells were selected using puromycin and single cell clones expressing this construct (referred to as MSTO-211H+12XGTIIC) were generated by limiting dilution. MSTO-211H cells was characterized by genetic alterations in key components of the Hippo pathway^2, resulting in up-regulation of YAP/TEAD-mediated transcription. […] To evaluate TEAD inhibitors, the MSTO-211H+12XGTIIC cell line was seeded in a 96-well plate in 50 μL of culture media at 1×10^4 cells per well and incubated at 37° C. overnight. Serial dilutions of compounds (in total volume of 50 μL of culture media) were added to the cells and incubated at 37° C. for 24 hours. Each plate included cells treated with DMSO as high controls and cells treated with 20 μM of the reference compound K-975 (a known TEAD inhibitor^3) as low controls. Cell viability was assayed by the addition of 25 μL of CellTiter-Fluor reagent (Promega) followed by a 30-minute incubation at 37° C. and quantification of the fluorescence signal (Ex400/Em505). Subsequently, luciferase expression was assayed by the addition of 25 μL of ONE-Glo reagent (Promega) followed by a 10-minute incubation at room temperature and quantification of the luminescence signal. The luminescence signal was normalized to the fluorescence signal to correct for any loss in cell viability over the 24-hour compound incubation period. The percentage of inhibition of normalized luminescence signal, indicative of compound-mediated inhibition of TEAD-dependent transcription, at individual compound concentrations relative to high and low controls was calculated. The data were analyzed by using nonlinear regression to generate IC50 values for individual compounds.

Structure (SMILES) | IC50
Nc1cncc(C(=O)N2CCc3c(cccc3Nc3ccc(C(F)(F)F)cc3)C2)c1 [Compound O-0031, (5-aminopyridin-3-yl)(5-((4-(trifluoromethyl)phenyl)amino)-3,4-dihydroisoquinolin-2(1H)-yl)methanone] | 0.001 to 10 µM
O=C(CCS(=O)(=O)C(F)(F)F)N1CCc2c(ncnc2Nc2ccc(C(F)(F)F)cc2)C1 [Compound O-0024, 1-(4-((4-(trifluoromethyl)phenyl)amino)-5,8-dihydropyrido[3,4-d]pyrimidin-7(6H)-yl)-3-((trifluoromethyl)sulfonyl)propan-1-one] | 0.001 to 10 µM
O=C(c1cccc2[nH]ccc12)N1CCc2c(cccc2Nc2ccc(C(F)(F)F)cc2)C1 [Compound O-0027, (1H-indol-4-yl)(5-((4-(trifluoromethyl)phenyl)amino)-3,4-dihydroisoquinolin-2(1H)-yl)methanone] | 0.001 to 10 µM
Nc1ccnc(C(=O)N2CCc3c(cccc3Nc3ccc(C(F)(F)F)cc3)C2)c1 [Compound O-0030, (4-aminopyridin-2-yl)(5-((4-(trifluoromethyl)phenyl)amino)-3,4-dihydroisoquinolin-2(1H)-yl)methanone] | 0.001 to 10 µM
O=C(Cc1cnco1)N1CCc2c(cccc2Nc2ccc(C(F)(F)F)cc2)C1 [Compound O-0004, 2-(oxazol-5-yl)-1-(5-((4-(trifluoromethyl)phenyl)amino)-3,4-dihydroisoquinolin-2(1H)-yl)ethan-1-one] | 0.001 to 10 µM
C=CC(=O)Nc1cccc(C(=O)N2CCc3c(cccc3Nc3ccc(C(F)(F)F)cc3)C2)c1 [Compound O-0034, N-(3-(5-((4-(trifluoromethyl)phenyl)amino)-1,2,3,4-tetrahydroisoquinoline-2-carbonyl)phenyl)acrylamide] | 0.001 to 10 µM
C=CC(=O)Nc1cncc(C(=O)N2CCc3c(cccc3Nc3ccc(C(F)(F)F)cc3)C2)c1 [Compound O-0037, N-(5-(5-((4-(trifluoromethyl)phenyl)amino)-1,2,3,4-tetrahydroisoquinoline-2-carbonyl)pyridin-3-yl)acrylamide] | 0.001 to 10 µM
CN(c1ccc(C(F)(F)F)cc1)c1cccc2c1CCN(C(=O)c1cccc(N)n1)C2 [Compound O-0014, (6-aminopyridin-2-yl)(5-(methyl(4-(trifluoromethyl)phenyl)amino)-3,4-dihydroisoquinolin-2(1H)-yl)methanone] | 0.001 to 10 µM
O=C(NCCC(=O)N1CCc2c(cccc2Nc2ccc(C(F)(F)F)c(F)c2)C1)NC1CC1 [Compound O-0188, 1-cyclopropyl-3-(3-(5-((3-fluoro-4-(trifluoromethyl)phenyl)amino)-3,4-dihydroisoquinolin-2(1H)-yl)-3-oxopropyl)urea] | 0.001 to 10 µM
CS(=O)(=O)CCC(=O)N1CCc2c(cccc2Nc2ccc(C(F)(F)F)cc2)C1 [Compound O-0001, 3-(methylsulfonyl)-1-(5-((4-(trifluoromethyl)phenyl)amino)-3,4-dihydroisoquinolin-2(1H)-yl)propan-1-one] | 0.001 to 10 µM
CN(c1ccc(C(F)(F)F)cc1)c1cccc2c1CCN(C(=O)CCS(=O)(=O)C(F)(F)F)C2 [Compound O-0016, 1-(5-(methyl(4-(trifluoromethyl)phenyl)amino)-3,4-dihydroisoquinolin-2(1H)-yl)-3-((trifluoromethyl)sulfonyl)propan-1-one] | 0.001 to 10 µM
CS(=O)(=O)c1cc(C(=O)N2CCc3c(cccc3Nc3ccc(C(F)(F)F)cc3)C2)ccn1 [Compound O-0201, (2-(methylsulfonyl)pyridin-4-yl)(5-((4-(trifluoromethyl)phenyl)amino)-3,4-dihydroisoquinolin-2(1H)-yl)methanone] | 0.001 to 10 µM
CN(c1ccc(C(F)(F)F)cn1)c1cccc2c1CCN(C(=O)CCS(=O)(=O)C(F)(F)F)C2 [Compound O-0022, 1-(5-(methyl(5-(trifluoromethyl)pyridin-2-yl)amino)-3,4-dihydroisoquinolin-2(1H)-yl)-3-((trifluoromethyl)sulfonyl)propan-1-one] | 0.001 to 10 µM
Nc1cccc(CNC(=O)N2CCc3c(cccc3Nc3ccc(C(F)(F)F)cc3)C2)n1 [Compound O-0191, N-((6-aminopyridin-2-yl)methyl)-5-((4-(trifluoromethyl)phenyl)amino)-3,4-dihydroisoquinoline-2(1H)-carboxamide] | 0.001 to 10 µM
O=C(Nc1ccccn1)N1CCC(C(=O)N2CCc3c(cccc3Nc3ccc(C(F)(F)F)cn3)C2)C1 (centres unmarked) [Compound O-0093, N-(pyridin-2-yl)-3-(5-((5-(trifluoromethyl)pyridin-2-yl)amino)-1,2,3,4-tetrahydroisoquinoline-2-carbonyl)pyrrolidine-1-carboxamide] | 0.001 to 10 µM
O=C(CCS(=O)(=O)C(F)(F)F)N1CCc2c(cccc2Nc2ccc(C(F)(F)F)cc2)C1 [Compound O-0010, 1-(5-((4-(trifluoromethyl)phenyl)amino)-3,4-dihydroisoquinolin-2(1H)-yl)-3-((trifluoromethyl)sulfonyl)propan-1-one] | 0.001 to 10 µM
O=C1NC(=O)C(CC(=O)N2CCc3c(cccc3Nc3ccc(C(F)(F)F)cc3F)C2)N1 (centres unmarked) [Compound O-0196, 5-(2-(5-((2-fluoro-4-(trifluoromethyl)phenyl)amino)-3,4-dihydroisoquinolin-2(1H)-yl)-2-oxoethyl)imidazolidine-2,4-dione] | 0.001 to 10 µM
CN(c1ccc(C(F)(F)F)nc1)c1cccc2c1CCN(C(=O)CCS(=O)(=O)C(F)(F)F)C2 [Compound O-0023, 1-(5-(methyl(6-(trifluoromethyl)pyridin-3-yl)amino)-3,4-dihydroisoquinolin-2(1H)-yl)-3-((trifluoromethyl)sulfonyl)propan-1-one] | 0.001 to 10 µM
O=C(NCCC(=O)N1CCc2c(cccc2Nc2ccc(C(F)(F)F)c(F)c2)C1)Nc1ccccn1 [Compound O-0185, 1-(3-(5-((3-fluoro-4-(trifluoromethyl)phenyl)amino)-3,4-dihydroisoquinolin-2(1H)-yl)-3-oxopropyl)-3-(pyridin-2-yl)urea] | 0.001 to 10 µM
O=C(NCCC(=O)N1CCc2c(cccc2Nc2ccc(C(F)(F)F)cc2F)C1)NC1CC1 [Compound O-0193, 1-cyclopropyl-3-(3-(5-((2-fluoro-4-(trifluoromethyl)phenyl)amino)-3,4-dihydroisoquinolin-2(1H)-yl)-3-oxopropyl)urea] | 0.001 to 10 µM
C=CC(=O)Nc1nccc(C(=O)N2CCc3c(cccc3Nc3ccc(C(F)(F)F)cc3)C2)n1 [Compound O-0039, N-(4-(5-((4-(trifluoromethyl)phenyl)amino)-1,2,3,4-tetrahydroisoquinoline-2-carbonyl)pyrimidin-2-yl)acrylamide] | 0.001 to 10 µM
O=C(c1ccnc(Cl)n1)N1CCc2c(cccc2Nc2ccc(C(F)(F)F)cc2)C1 [Compound O-0041, (2-chloropyrimidin-4-yl)(5-((4-(trifluoromethyl)phenyl)amino)-3,4-dihydroisoquinolin-2(1H)-yl)methanone] | 0.001 to 10 µM
Nc1nc(C(=O)N2CCc3c(cccc3Nc3ccc(C(F)(F)F)cc3)C2)cs1 [Compound O-0006, (2-aminothiazol-4-yl)(5-((4-(trifluoromethyl)phenyl)amino)-3,4-dihydroisoquinolin-2(1H)-yl)methanone] | 0.001 to 10 µM
NC(=O)NCCC(=O)N1CCc2c(cccc2Nc2ccc(C(F)(F)F)c(F)c2)C1 [Compound O-0190, 1-(3-(5-((3-fluoro-4-(trifluoromethyl)phenyl)amino)-3,4-dihydroisoquinolin-2(1H)-yl)-3-oxopropyl)urea] | 0.001 to 10 µM
Nc1nccc(C(=O)N2CCc3c(cccc3Nc3ccc(C(F)(F)F)cc3)C2)n1 [Compound O-0033, (2-aminopyrimidin-4-yl)(5-((4-(trifluoromethyl)phenyl)amino)-3,4-dihydroisoquinolin-2(1H)-yl)methanone] | 0.001 to 10 µM
O=C(NCc1ccccn1)N1CCc2c(cccc2Nc2ccc(C(F)(F)F)cc2)C1 [Compound O-0194, N-(pyridin-2-ylmethyl)-5-((4-(trifluoromethyl)phenyl)amino)-3,4-dihydroisoquinoline-2(1H)-carboxamide] | 0.001 to 10 µM
